Source: publication PMC11587536 (Biochemistry, 2024)

Target: MoLOX (Pyricularia oryzae, UniProt G4NAP4)
Sequence (G4NAP4 17-619 limits assumed): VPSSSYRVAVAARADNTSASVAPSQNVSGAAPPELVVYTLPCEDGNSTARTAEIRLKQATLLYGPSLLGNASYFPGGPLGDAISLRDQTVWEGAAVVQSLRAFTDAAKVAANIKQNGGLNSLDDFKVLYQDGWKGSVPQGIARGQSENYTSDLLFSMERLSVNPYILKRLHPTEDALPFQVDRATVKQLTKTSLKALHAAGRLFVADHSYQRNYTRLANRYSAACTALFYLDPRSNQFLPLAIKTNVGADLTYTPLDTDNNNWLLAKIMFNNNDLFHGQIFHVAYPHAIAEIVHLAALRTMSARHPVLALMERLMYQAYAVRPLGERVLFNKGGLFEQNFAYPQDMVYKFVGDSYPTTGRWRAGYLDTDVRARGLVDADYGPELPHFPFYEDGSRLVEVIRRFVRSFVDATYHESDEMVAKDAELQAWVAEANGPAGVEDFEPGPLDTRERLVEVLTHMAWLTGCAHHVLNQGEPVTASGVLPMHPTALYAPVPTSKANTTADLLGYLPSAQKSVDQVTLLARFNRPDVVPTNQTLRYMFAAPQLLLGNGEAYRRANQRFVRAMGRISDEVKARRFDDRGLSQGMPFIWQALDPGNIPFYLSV

## CC/C=C\C/C=C\C/C=C\CCCCCCCC(=O)O [αLA, alpha linolenic]
  O2 electrode, steady-state kinetics: WT MoLOX reacts nearly twice as fast with αLA as with LA
